Measurements as given in patent US20090047655A1, “Method Of Screening Candidate Drug” (priority 2004, published 2009).
Read-outs that look alike come from different tables or passages of the source. Values belong to the compound of their own block, whether it stands above or below them.

Experiments:
CYP1A2 = CYP1A2 (Homo sapiens, UniProt P05177); assay: Inhibition of metabolic activity by paroxetine in high-replacement chimeric mouse (marker caffeine); type: in vivo; conditions: paroxetine 30 mg/kg b.w./day i.p. for 3 days, donor BD51
Description: (§1) As for the chimeric mice, chimeric mice produced in PhoenixBio Co., Ltd. were used. To be more specific, 3 mice in which human hepatocytes were engrafted and proliferated in the mouse liver were produced by transplanting human hepatocytes (BD51, purchased from BD Gentist Inc.) into the spleen of uPA(+/+)/SCID mice, which are mice having hepatic impairment and immunodeficiency.
(§2) Paroxetine was dissolved in Milli-Q water (using a bath-type ultrasonic device) and prepared to give a final concentration of 6 mg/ml. The prepared drug was intraperitoneally administered to the mice at a dose of 5 μl/g b.w. (30 mg/kg b.w./day).
(§3) To the high-replacement chimeric mice, paroxetine was intraperitoneally administered for 3 days. Then, in the same manner as in Example 1, 5 compounds were simultaneously administered orally by gavage, the blood was collected over time, and the serum was stored.
(§4) The determination and analysis of drugs in the serum were carried out in the same manner as in Example 1.
(§5) The determined values of the drug concentration in the serum were calculated from the peak area ratio obtained by the LC-MS/MS measurement of the samples for addition calibration curve. […] From the graphs, Cmax, t1/2 and AUC were analyzed.

CYP2C19 = target: T1, CYP2C19 (Homo sapiens, UniProt P33261); assay: Inhibition of metabolic activity by paroxetine in high-replacement chimeric mouse (marker omeprazole); type: in vivo; conditions: paroxetine 30 mg/kg b.w./day i.p. for 3 days, donor BD51
T1 construct: human hepatocytes were engrafted and proliferated in the mouse liver; host or cells: human donor hepatocytes BD51 engrafted in the liver of uPA(+/+)/SCID mice (high-replacement chimeric mice, PhoenixBio)
Description: as §1, §2, §3, §4, §5

CYP3A4 = target: T2, CYP3A4 (Homo sapiens, UniProt P08684); assay: Inhibition of metabolic activity by paroxetine in high-replacement chimeric mouse (marker erythromycin); type: in vivo; conditions: paroxetine 30 mg/kg b.w./day i.p. for 3 days, donor BD51
T2 construct: human hepatocytes were engrafted and proliferated in the mouse liver; host or cells: human donor hepatocytes BD51 engrafted in the liver of uPA(+/+)/SCID mice (high-replacement chimeric mice, PhoenixBio)
Description: as §1, §2, §3, §4, §5

in vivo = conditions: mouse, in vivo
Source text: (§6) As for the chimeric mice, chimeric mice produced by Hiroshima Prefectural Institute of Industrial Science and Technology or PhoenixBio Co., Ltd. were used. To be more specific, mice in which human hepatocytes were engrafted and proliferated in the mouse liver were produced by transplanting human hepatocytes (IVT079, purchased from In Vitro Technology Inc., or BD51, purchased from BD Gentest Inc.) into the spleen of uPA(+/+)/SCID mice, which are mice having hepatic impairment and immunodeficiency. Mice in which 70% or more of the mouse liver had been replaced with human hepatocytes (high-replacement chimeric mice) and low-replacement chimeric mice in which although human hepatocytes had been transplanted, the replacement ratio was almost 0%, or untransplanted mice (mice with no replacement) were used (3 mice in each group). Further, as a control, 3 uPA(−/−)/SCID mice were used.
(§7) The concentration for administration of tolbutamide which is a standard drug for CYP2C9 was […]., and 4.175 mg of tolbutamide was weighed out and suspended in 1 ml of a CMC liquid in an agate mortar, and a 4.175 mg/ml suspension which is 5 times as high as the concentration for administration was prepared.
(§8) To the high-replacement chimeric mice, low-replacement chimeric mice (or mice with no replacement) and uPA(−/−)/SCID mice (3 mice in each group), 5 compounds were simultaneously administered orally by gavage or intravenously. The blood was collected from the tail vein of each mouse in an amount of 15 μl each at 0.25 (only intravenous administration), 0.5, 1, 2, 4 (only oral administration) and 8 hours after administration. Then, the blood was centrifuged at 3,500 rpm for 5 minutes, and the serum (supernatant) was collected and stored in a freezer at −30° C.
(§9) The serum samples were transported to Sumika Chemical Analysis Service, Ltd. while keeping it in dry ice, and subjected to measurement by LC-MS/MS according to the following procedure.
(§10) With regard to a liquid chromatograph, SIL-HTC and LC-10A series (Shimadzu Corporation) were used, and as a column, Synergi 4μ Polar-RP 80A, 150 mm (length)×2.00 mm (inner diameter), 4 μm (Phenomenex Inc.) was used at 30° C. As a mobile phase, methanol/a 10 mmol/l ammonium acetate solution/acetic acid (700/300/2, v/v/v) was used, and a flow rate was set at 0.2 ml/min. An injection volume was set at 2 μl, a measurement time was set at 10 min, and the temperature of an autosampler was set at 4° C. As a mass spectrometer, Tandem Mass Spectrometer API 4000 (Applied Biosystems/MDS SCIEX Inc.) was used. As API interface, Turbo V (ESI probe) was used, and as Ionization mode, Positive ion detection mode was used.
To Eppendorf tubes in which 5 μl of samples to be measured (serum) were contained, 100 μl of methanol was added, and 10 μl of 1 μg/ml of I.S. standard solution was added thereto, and then, the mixtures were thoroughly mixed by an ultrasonic treatment and a vortex mixer. The resulting mixtures were centrifuged (15,000 rpm, 5 min, room temperature), and the resulting supernatants were subjected to centrifugal filtration (10,000 rpm, 2 min, room temperature) with a filter, and the resulting filtrates were used as injection samples for LC-MS/MS.
(§11) The determined values of the drug concentration in the serum were calculated from the peak area ratio obtained by the LC-MS/MS measurement of the samples for addition calibration curve. […] From the graphs, the peak serum concentration (Cmax), half-life (t1/2), area under the curve (AUC), bioavailability and clearance were analyzed, and pharmacokinetics in human was predicted.

[1] = mouse, in vivo
Source text: as §6, §7, §8, §9, §10
To Eppendorf tubes in which 5 μl of samples to be measured (serum) were contained, 100 μl of methanol was added, and 10 μl of 1 μg/ml of I.S. standard solution was added thereto, and then, the mixtures were thoroughly mixed by an ultrasonic treatment and a vortex mixer. […]
as §11

CYP2D6 = assay: in vivo; conditions: uPA(+/+)/SCID, mouse, po
Description: as §1, §2, §3, §4, §5

[2] = uPA(−/−)/SCID, iv, t 1/2 Distribution phase
[3] = uPA(−/−)/SCID, iv, t 1/2 Elimination phase

T1 sequence (P33261 whole entry): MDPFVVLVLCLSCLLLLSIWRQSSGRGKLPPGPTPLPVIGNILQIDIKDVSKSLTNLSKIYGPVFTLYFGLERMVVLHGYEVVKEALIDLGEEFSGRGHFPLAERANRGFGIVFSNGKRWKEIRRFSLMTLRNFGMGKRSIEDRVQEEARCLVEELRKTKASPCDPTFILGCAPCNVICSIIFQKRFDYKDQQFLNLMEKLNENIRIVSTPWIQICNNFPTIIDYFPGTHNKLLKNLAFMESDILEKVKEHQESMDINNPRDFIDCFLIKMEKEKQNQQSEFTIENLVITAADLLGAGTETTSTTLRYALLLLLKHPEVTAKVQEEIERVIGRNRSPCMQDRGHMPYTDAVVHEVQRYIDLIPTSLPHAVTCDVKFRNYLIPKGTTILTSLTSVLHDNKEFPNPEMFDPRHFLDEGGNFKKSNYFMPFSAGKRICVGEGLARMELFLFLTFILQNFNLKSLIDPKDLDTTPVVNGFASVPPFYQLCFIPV
Chain of CYP1A2 (P05177 whole entry): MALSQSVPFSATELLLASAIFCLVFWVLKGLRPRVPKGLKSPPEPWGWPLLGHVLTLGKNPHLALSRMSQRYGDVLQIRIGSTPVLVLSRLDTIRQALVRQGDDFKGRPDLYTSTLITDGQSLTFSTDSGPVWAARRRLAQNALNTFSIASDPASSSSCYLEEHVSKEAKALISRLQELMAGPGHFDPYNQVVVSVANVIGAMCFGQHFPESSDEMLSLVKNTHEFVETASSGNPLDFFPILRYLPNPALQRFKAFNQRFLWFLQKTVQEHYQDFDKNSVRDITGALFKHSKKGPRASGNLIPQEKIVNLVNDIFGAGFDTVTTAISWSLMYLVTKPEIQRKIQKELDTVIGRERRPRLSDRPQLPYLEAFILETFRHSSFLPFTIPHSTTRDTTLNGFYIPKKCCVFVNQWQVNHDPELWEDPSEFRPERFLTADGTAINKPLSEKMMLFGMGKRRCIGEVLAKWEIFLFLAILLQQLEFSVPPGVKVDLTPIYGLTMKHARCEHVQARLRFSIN
T2 sequence (P08684 whole entry): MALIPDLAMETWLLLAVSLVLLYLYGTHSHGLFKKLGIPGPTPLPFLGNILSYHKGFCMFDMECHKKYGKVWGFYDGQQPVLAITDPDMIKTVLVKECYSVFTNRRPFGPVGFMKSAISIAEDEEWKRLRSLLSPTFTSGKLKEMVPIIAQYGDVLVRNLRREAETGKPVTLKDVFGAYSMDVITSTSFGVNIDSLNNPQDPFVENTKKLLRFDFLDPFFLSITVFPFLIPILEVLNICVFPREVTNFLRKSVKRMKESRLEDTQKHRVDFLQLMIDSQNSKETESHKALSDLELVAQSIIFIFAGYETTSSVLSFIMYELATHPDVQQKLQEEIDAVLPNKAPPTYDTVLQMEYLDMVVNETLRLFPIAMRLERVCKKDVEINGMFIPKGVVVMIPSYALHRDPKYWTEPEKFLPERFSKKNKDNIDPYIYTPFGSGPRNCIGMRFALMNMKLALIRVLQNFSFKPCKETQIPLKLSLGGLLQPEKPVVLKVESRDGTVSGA

inhibition of the metabolic activity of CYP1A2 (CYP1A2): inhibition | inhibition of the metabolic activity of CYP2C19 (CYP2C19): inhibition | inhibition of the metabolic activity of CYP3A4 (CYP3A4): inhibition
SMILES: Fc1ccc([C@@H]2CCNC[C@H]2COc2ccc3c(c2)OCO3)cc1 [paroxetine, Paroxetine]

SMILES: CCCCNC(=O)NS(=O)(=O)c1ccc(C)cc1 [Tolbutamide, tolbutamide]
AUC in high-replacement chimeric mice compared with low-replacement chimeric mice (in vivo): significantly lower | AUC (in vivo; uPA(+/+)/SCID, iv): 20600 ng·h/mL | t 1/2 Distribution phase (in vivo; uPA(+/+)/SCID, iv): 0.865^#3 hr | AUC (in vivo; uPA(+/+)/SCID, iv, AUC): 16800 ng·h/mL | half-life (in vivo; uPA(+/+)/SCID, iv, t 1/2 Distribution phase): 0.982 h | half-life (in vivo; uPA(+/+)/SCID, po, t 1/2 Elimination phase): 4.3 h | AUC (in vivo; uPA(−/−)/SCID, iv, AUC): 11500 ng·h/mL | half-life (in vivo; [2]): 2.84 h | half-life (in vivo; [3]): 2.56 h | AUC (in vivo; uPA(−/−)/SCID, po, AUC): 95300 ng·h/mL | bioavailability (in vivo; uPA(−/−)/SCID, po): 82.9% | Cmax (in vivo; uPA(−/−)/SCID, po): 16900 ng/mL | AUC in high-replacement chimeric mice compared with low-replacement chimeric mice [1]: significantly lower | AUC (CYP2D6): 115000 ng·h/mL | half-life (CYP2D6; t 1/2 Distribution phase): 3.31 h

t 1/2 Distribution phase (in vivo; uPA(+/+)/SCID, po): 2.22^#3 hr | half-life (in vivo; uPA(+/+)/SCID, po, t 1/2 Distribution phase): 4.38 h | AUC (in vivo; uPA(−/−)/SCID, iv, AUC): 13800 ng·h/mL | half-life (in vivo; [2]): 0.35 h | half-life (in vivo; [3]): 1.1 h | AUC (in vivo; uPA(−/−)/SCID, po, AUC): 4080 ng·h/mL | bioavailability (in vivo; uPA(−/−)/SCID, po): 2.95% | Cmax (in vivo; uPA(−/−)/SCID, po): 1000 ng/mL | AUC ([1]; uPA(+/+)/SCID): 21300 ng·h/mL
SMILES: CC[C@H]1OC(=O)[C@H](C)[C@@H](O[C@H]2C[C@@](C)(OC)[C@@H](O)[C@H](C)O2)[C@H](C)[C@@H](O[C@@H]2O[C@H](C)C[C@H](N(C)C)[C@H]2O)[C@](C)(O)C[C@@H](C)C(=O)[C@H](C)[C@@H](O)[C@]1(C)O [Erythromycin, erythromycin]
